Series [1] has as its system SCH cells. The series is described as follows: Cell viability assay (CellTiter-Glo), SCH. It counts as cell-based. The note with it: 96 h. Here is the method: (§1) Cells were seeded at a density of 0.2–1 × 10^4 cells/well into 96-well plates. One day after seeding, treatments were performed in triplicate for 72 h, or as otherwise indicated in the relevant panel/figure legend and kept at 37 °C/5% CO2. Growth medium alone (“untreated” cells) or DMSO was used as a control.
(§2) For SCH, SNU-5, and MKN45 cells, 50 μL of CellTiter-Glo® Reagent (Promega; Madison, WI, USA) was added to each well at the end of the treatments. The content was mixed for 5 min to facilitate cell lysis and plates incubated at room temperature for 10 min to stabilize luminescent signals, which were then recorded using an EnVision Multi Label Reader (PerkinElmer; Waltham, MA, USA).
(§3) Background values were subtracted prior to further analysis. The percentage of cell viability was expressed as relative values versus untreated cells as determined by the various assays. EC50/IC50 values were calculated using GraphPad Prism (v10.4.1) and the in-built non-linear regression [log (inhibitor) vs. response—variable slope (four parameters)] calculation. […] Synergy scores were calculated using the ZIP model, which takes the advantages of both the Loewe additivity and the Bliss independence models, aiming at a systematic assessment of various types of drug interaction patterns that may arise in a high-throughput drug combination screening.

Series [2] has as its system MKN45 cells. The series is described as follows: Cell viability assay (CellTiter-Glo), MKN45. It counts as cell-based. The conditions noted are these: Homo sapiens, MKN-45, 96 h. Here is the method:
as §1, §2, §3

Series [3] concerns PANC-1MX100 cells. Description: Cell viability assay, mitoxantrone-resistant PANC-1. The series is classed as cell-based, human. The conditions noted are these: SCO-101 20 µM, 72 h. How it is done: as §1
(§4) For MTT assays, media were replaced at the final timepoint with 100 μL of 1:10 MTT reagent (0.5 mg/mL in PBS) diluted in growth medium, and plates were incubated for 3 h. A total of 100 μL/well of stop buffer (50 g Sodium Dodecyl Sulfate, 245 mL ddH2O, 5 mL 1N HCl) was added and plates incubated for 24 h to let colored formazan crystals develop. Optical densities (ODs) were measured with a PowerWave^TM Microplate spectrophotometer (BioTek, Winooski, VT, USA) at 570 nm and 670 nm (background).
Background values were subtracted prior to further analysis. The percentage of cell viability was expressed as relative values versus untreated cells as determined by the various assays. EC50/IC50 values were calculated using GraphPad Prism (v10.4.1) and the in-built non-linear regression [log (inhibitor) vs. response—variable slope (four parameters)] calculation. For determination of synergy scores, the online tool SynergyFinder+ (https://synergyfinder.org access date 15 February 2025) was employed following 4 × 4- or 6 × 6-matrix dose-escalation cell viability experiments. […]

Series [4] deals with HT29SN-38 cells. Description: Cell viability assay (MTT / CCK-8), SN-38-resistant HT29. It counts as cell-based, human. How it is done:
as §1, §4
For CCK-8 assays, 100 μL of 1:10 CCK-8 reagent (pevonedistat-treated HT29 cells) diluted in medium was added to each well and cells incubated for 1–2 h at 37 °C. OD values were measured at 450 nm with a VersaMax microplate spectrophotometer (Molecular Devices, San Jose, CA, USA).
Background values were subtracted prior to further analysis. The percentage of cell viability was expressed as relative values versus untreated cells as determined by the various assays. EC50/IC50 values were calculated using GraphPad Prism (v10.4.1) and the in-built non-linear regression [log (inhibitor) vs. response—variable slope (four parameters)] calculation. For determination of synergy scores, the online tool SynergyFinder+ (https://synergyfinder.org access date 15 February 2025) was employed following 4 × 4- or 6 × 6-matrix dose-escalation cell viability experiments. Doses of drugs are indicated in the relevant figure legends and ranges have been chosen based on the response of cells to single-drug dose-dependent experiments. Synergy scores were calculated using the ZIP model, which takes the advantages of both the Loewe additivity and the Bliss independence models, aiming at a systematic assessment of various types of drug interaction patterns that may arise in a high-throughput drug combination screening.

Series [5] concerns the target T1, ABCG2 (Homo sapiens, UniProt Q9UNQ0).
T1 sequence (Q9UNQ0 1-655): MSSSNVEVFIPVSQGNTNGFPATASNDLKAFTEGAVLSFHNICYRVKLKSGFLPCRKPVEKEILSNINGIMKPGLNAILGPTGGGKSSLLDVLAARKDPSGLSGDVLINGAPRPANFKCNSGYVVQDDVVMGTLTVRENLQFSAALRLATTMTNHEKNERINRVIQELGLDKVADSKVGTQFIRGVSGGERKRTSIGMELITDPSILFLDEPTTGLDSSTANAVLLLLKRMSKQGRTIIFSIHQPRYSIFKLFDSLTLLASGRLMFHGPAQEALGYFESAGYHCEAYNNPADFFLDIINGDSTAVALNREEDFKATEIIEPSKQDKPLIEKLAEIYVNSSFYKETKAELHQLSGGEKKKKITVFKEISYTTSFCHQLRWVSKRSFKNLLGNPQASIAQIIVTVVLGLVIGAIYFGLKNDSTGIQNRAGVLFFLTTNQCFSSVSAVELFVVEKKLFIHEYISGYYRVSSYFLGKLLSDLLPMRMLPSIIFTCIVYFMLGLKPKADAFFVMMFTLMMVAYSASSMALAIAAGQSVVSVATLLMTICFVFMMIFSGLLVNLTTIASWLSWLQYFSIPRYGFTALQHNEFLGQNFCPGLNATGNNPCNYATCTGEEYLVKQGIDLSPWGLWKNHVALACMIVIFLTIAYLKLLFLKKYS
The series is described as follows: Bidirectional transport of estrone-3-sulfate across Caco-2 cell monolayers. It counts as cell-based. The conditions noted are these: Caco-2 monolayers, 50 µM SCO-101. Here is the method: Bidirectional transport experiments (basolateral-to-apical and apical-to-basolateral) with the ABCG2 substrate estrone-3-sulfate and the MDR1/ABCB1 substrate digoxin were performed in Caco-2 cell monolayers as previously described.
In general terms: Caco-2 cells form a polarised layer with tight junctions and transporters.

What is called IC50 is the concentration at which inhibition is half-maximal. As for `O=C(Nc1cc(C(F)(F)F)cc(C(F)(F)F)c1)Nc1ccc(Br)cc1-c1nnn[nH]1` [SCO-101, N-[4-Bromo-2-(1H-1,2,3,4-tetrazol-5-yl)phenyl]-N′-[3,5-bis(trifluoromethyl)phenyl]urea], the IC50 in series [1] is over 50 µM; in series [2] it was over 50 µM; in series [4] (Homo sapiens, HT-29, 72 h) it was over 25 µM. The “cell viability, SCO-101 combined with mitoxantrone or SN-38” value in series [3] is reported as “re-sensitized”. The “cell viability, SCO-101 in combination with SN-38” value in series [4] (SCO-101 0–50 µM + SN-38 0.08 μM) is recorded as “re-sensitization”. Further, in series [4] (SCO-101 15 μM + SN-38 0.5 μM, washout 48 h or 120 h), the “cell viability after 24 h combination treatment and drug washout” value was “significant cytotoxic effect”. In addition, in series [4] (SCO-101 15 μM or SN-38 0.5 μM alone, washout 48 h or 120 h), the “cell viability after 24 h single treatment and drug washout” value is given as “did not affect cell viability”. For the same compound, in series [5], the “basolateral-to-apical transport of the ABCG2 substrate estrone-3-sulfate” value is listed as “completely blocked”.

The values above are taken from publication PMC12027554, “Inhibition of ABCG2 by SCO-101 Enhances Chemotherapy Efficacy in Cancer” (International Journal of Molecular Sciences, 2025).
